Test results taken from US12071443B2, “Prolyl hydroxylase domain-containing protein (PHD) inhibitors and uses thereof” (Insilico Medicine IP Limited, priority 2021, dated 2024).
pEC50, pIC50: −log10 of the molar value.

Experiments:
[1] = test system: Caco2-HIF1α-HiBiT-clone-1 cells; experiment: Caco-2 HIF1α-HiBiT assay; type: cell-based; conditions: Homo sapiens, Caco-2; Caco2-HIF1α-HiBiT-clone-1 cells, 6 h incubation, luminescence; read-out: Caco2-HIF1α-HiBit assay - EC50
PHD2 = PHD2 (Homo sapiens, UniProt Q9GZT9); experiment: PHD2 enzymatic assay (AlphaScreen); type: biochemical; conditions: PHD2 enzyme, AlphaScreen, IC50 from % inhibition; read-out: PHD2
PHD2, sequence (Q9GZT9 whole entry): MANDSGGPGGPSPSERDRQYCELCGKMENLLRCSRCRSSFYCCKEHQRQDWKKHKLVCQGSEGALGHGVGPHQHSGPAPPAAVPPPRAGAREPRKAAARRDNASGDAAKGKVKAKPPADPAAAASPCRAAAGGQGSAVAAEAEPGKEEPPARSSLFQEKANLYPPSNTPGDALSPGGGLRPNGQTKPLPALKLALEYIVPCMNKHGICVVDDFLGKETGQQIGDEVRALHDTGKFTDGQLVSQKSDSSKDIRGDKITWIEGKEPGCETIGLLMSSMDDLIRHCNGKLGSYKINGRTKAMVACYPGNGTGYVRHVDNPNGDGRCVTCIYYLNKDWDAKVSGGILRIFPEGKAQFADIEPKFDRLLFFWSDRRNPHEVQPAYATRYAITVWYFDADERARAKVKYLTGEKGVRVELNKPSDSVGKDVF

SMILES	pEC50 [1]	pIC50 (PHD2)
CCOC(=O)C1CCN(c2ccc3c(O)c(C(=O)NCc4ccc(C#N)nc4)ncc3n2)CC1 [Example 94]	5.00 to 5.12	> 8.30
CC(C)OC(=O)C1CCN(c2ccc3c(O)c(C(=O)NCc4ccc(C#N)nc4)ncc3n2)CC1 [Example 95]	4.00 to 5.00	> 8.30
N#Cc1ccc(CNC(=O)c2ncc3nc(N4CCC(C(=O)OC5CC5)CC4)ccc3c2O)cn1 [Example 96]	4.00 to 5.00	> 8.30
N#Cc1ccc(CNC(=O)c2ncc3nc(N4CCOCC4=O)ccc3c2O)cn1 [Example 100]	5.00 to 5.12	7.70 to 8.30
CC(C)(C)OC(=O)N1CCN(c2ccc3c(O)c(C(=O)NCc4ccc(C#N)nc4)ncc3n2)C(=O)C1 [Example 101]	5.30 to 5.60	> 8.30
N#Cc1ccc(CNC(=O)c2ncc3nc(N4CCOC4=O)ccc3c2O)cn1 [Example 103]	5.30 to 5.60	> 8.30
N#Cc1ccc(CNC(=O)c2ncc3nc(N4CC(O)(CO)C4)ccc3c2O)cn1 [Example 119]	4.00 to 5.00	> 8.30
COC(=O)N1CCN(c2ccc3c(O)c(C(=O)NCc4ccc(C#N)nc4)ncc3n2)CC1 [Example 120]	4.00 to 5.00	> 8.30
COC(=O)C1(O)CN(c2ccc3c(O)c(C(=O)NCc4ccc(C#N)nc4)ncc3n2)C1 [Example 121]	5.00 to 5.12	> 8.30
CC(C)(C)OC(=O)NC1CCN(c2ccc3c(O)c(C(=O)NCc4ccc(C#N)nc4)ncc3n2)CC1 [Example 123]	5.30 to 5.60	> 8.30
N#Cc1ccc(CNC(=O)c2ncc3nc(N4CCC(N)CC4)ccc3c2O)cn1 [Example 124, 2-(4-aminopiperidin-1-yl)-N-((6-cyanopyridin-3-yl)methyl)-5-hydroxy-1,7-naphthyridine-6-carboxamide]	4.00 to 5.00	> 8.30
CC(C)(C)OC(=O)N[C@H]1CCN(c2ccc3c(O)c(C(=O)NCc4ccc(C#N)nc4)ncc3n2)C1 [Example 125]	> 5.60	> 8.30
N#Cc1ccc(CNC(=O)c2ncc3nc(N4CC[C@H](N)C4)ccc3c2O)cn1 [Example 126, (S)-2-(3-aminopyrrolidin-1-yl)-N-((6-cyanopyridin-3-yl)methyl)-5-hydroxy-1,7-naphthyridine-6-carboxamide]	4.00 to 5.00	> 8.30
CC(C)(C)OC(=O)NC1CN(c2ccc3c(O)c(C(=O)NCc4ccc(C#N)nc4)ncc3n2)C1 [Example 127]	> 5.60	> 8.30
N#Cc1ccc(CNC(=O)c2ncc3nc(N4CC(N)C4)ccc3c2O)cn1 [Example 128, 2-(3-aminoazetidin-1-yl)-N-((6-cyanopyridin-3-yl)methyl)-5-hydroxy-1,7-naphthyridine-6-carboxamide]	5.12 to 5.30	7.00 to 7.70
CC(C)(C)OC(=O)N1CCN(c2ccc3c(O)c(C(=O)NCc4ccc(C#N)nc4)ncc3n2)C[C@@H]1C#N [Example 132]	5.12 to 5.30	> 8.30
CC(C)(C)OC(=O)N1CCN(c2ccc3c(O)c(C(=O)NCc4cnc(C#N)nc4)ncc3n2)CC1 [Example 133]	5.30 to 5.60	7.70 to 8.30
CC1(OC(=O)N2CCN(c3ccc4c(O)c(C(=O)NCc5ccc(C#N)nc5)ncc4n3)CC2)CC1 [Example 137]	> 5.60	> 8.30
CC(C)OC(=O)N1CCN(c2ccc3c(O)c(C(=O)NCc4ccc(C#N)nc4)ncc3n2)CC1 [Example 138]	5.30 to 5.60	> 8.30
C[C@H]1CN(C(=O)OC(C)(C)C)CCN1c1ccc2c(O)c(C(=O)NCc3ccc(C#N)nc3)ncc2n1 [Example 139]	5.30 to 5.60	> 8.30
CC(C)(C)OC(=O)N[C@@H]1CCN(c2ccc3c(O)c(C(=O)NCc4ccc(C#N)nc4)ncc3n2)C1 [Example 140]	5.30 to 5.60	7.70 to 8.30
CC(C)(C)OC(=O)N[C@@H]1CN(c2ccc3c(O)c(C(=O)NCc4ccc(C#N)nc4)ncc3n2)C[C@@H]1F [Example 142]	5.30 to 5.60	7.70 to 8.30
CC(C)(C)OC(=O)N[C@H]1CC(=O)N(c2ccc3c(O)c(C(=O)NCc4ccc(C#N)nc4)ncc3n2)C1 [Example 143]	> 5.60	> 8.30
CC(C)(C)OC(=O)NC1CCN(c2ccc3c(O)c(C(=O)NCc4ccc(C#N)nc4)ncc3n2)C1=O (stereo not drawn) [Example 144]	5.30 to 5.60	7.70 to 8.30
C[C@@H]1CN(c2ccc3c(O)c(C(=O)NCc4ccc(C#N)nc4)ncc3n2)CCN1C(=O)OC(C)(C)C [Example 149]	5.30 to 5.60	> 8.30
C[C@@H]1CN(C(=O)OC(C)(C)C)CCN1c1ccc2c(O)c(C(=O)NCc3ccc(C#N)nc3)ncc2n1 [Example 150]	> 5.60	> 8.30
COC(=O)CC1CN(c2ccc3c(O)c(C(=O)NCc4ccc(C#N)nc4)ncc3n2)C1 [Example 152]	5.30 to 5.60	> 8.30
